Experimental data reported in patent US10329304B2, “Compounds and methods for inhibition of hedgehog signaling and phosphodiesterase” (Vanderbilt University, priority 2014, dated 2019).
Where two headings read alike, the source gives them in different places.

Legend:
[1] = test system: Hedgehog signaling (Gli-Luc reporter); assay: Hh Gli-Luciferase reporter assay in Shh-Light2 cells; assay type: cell-based, mouse; conditions: for EC50: Mus musculus, Shh Light2
Method: For Hh signaling assays, Shh-Light2 cells stably transfected with Gli-Luciferase reporter construct were used along with Shh-conditioned media, as previously described^7. Alternatively, 3 μM purmorphamine or 20 nM Smoothened agonist (SAG) (Santa Cruz Biotechnology, Santa Cruz, Calif.) was used to induce Hh signaling. Reporter cells were seeded in 96-well plates and incubated overnight with the various concentrations of eggmanone and Shh-conditioned media. To assess the effects of overexpression of Gli-2, PDE4D3 and DN-PDE4D3 on Hh signaling, mammalian expression vectors containing these constructs were transfected into Shh-Light2 cells in 96-well plates using Fugene6 (Roche), according to manufacturer's instructions. The transfected or Shh-stimulated cells were incubated overnight with the various concentrations of compound. The cells were then lysed, and cell extracts were subjected to Steady-Glo luciferase assay (Promega) according to manufacturer's instructions. The results were normalized to cell titer, as determined using Cell Titer-Glo luminescence assay (Promega).

PDE4D = PDE4D (Homo sapiens, UniProt Q08499); assay: PDE4 inhibition assay (PDE4D IC50); assay type: biochemical; conditions: Table 8; read-out: PDE4 Inhibition Assay (IC50)
Sequence of PDE4D (Q08499 1-673 isoform Q08499-2): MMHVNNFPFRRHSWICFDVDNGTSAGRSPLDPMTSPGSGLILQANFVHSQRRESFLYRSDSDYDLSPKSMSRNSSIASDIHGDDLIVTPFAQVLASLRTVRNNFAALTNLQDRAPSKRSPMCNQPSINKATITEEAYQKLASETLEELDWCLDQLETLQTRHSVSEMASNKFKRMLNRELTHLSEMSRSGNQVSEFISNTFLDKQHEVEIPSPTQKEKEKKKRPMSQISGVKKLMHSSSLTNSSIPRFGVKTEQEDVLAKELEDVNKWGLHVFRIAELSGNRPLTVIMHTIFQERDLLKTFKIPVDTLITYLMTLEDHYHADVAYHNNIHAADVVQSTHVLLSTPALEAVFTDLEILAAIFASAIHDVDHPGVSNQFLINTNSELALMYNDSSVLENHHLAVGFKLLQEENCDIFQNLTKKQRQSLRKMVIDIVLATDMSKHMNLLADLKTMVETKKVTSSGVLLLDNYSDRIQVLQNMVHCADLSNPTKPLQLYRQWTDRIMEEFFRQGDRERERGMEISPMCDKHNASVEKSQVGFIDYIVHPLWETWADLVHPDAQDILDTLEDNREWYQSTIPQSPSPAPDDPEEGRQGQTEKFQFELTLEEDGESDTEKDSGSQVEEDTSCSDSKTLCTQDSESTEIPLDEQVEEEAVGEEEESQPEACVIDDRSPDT
Method: (§1) In vitro PDE profiling and dose-response assays were performed by BPS Biosciences (San Diego, Calif.). Kinetic Mechanism of inhibition studies were conducted by Millipore (St. Louis, Mo.). In brief, the PDE assay measures fluorescent polarization of FAM-AMP as FAM-cAMP is converted to FAM-AMP by PDE), the binding agent.
(§2) A series of dilutions of the test compound were prepared with 10% DMSO in assay buffer and 5 μl of the dilution was added to a 50 μl reaction so that the final concentration of DMSO is 1% in all of reactions. All of the PDE enzymatic reactions were conducted in duplicate at room temperature for 60 minutes in a 50 μl mixture containing PDE assay buffer (10 mM Tris-HCl, pH7.4, 10 mM MaCl2, 0.05% Tween 20), 100 nM FAM-cAMP, a PDE enzyme and a test compound.
After the enzymatic reaction, 100 μl of a binding solution (1:100 dilution of the binding agent, which contains the nano beads that recognize FAM-AMP, with the binding agent diluent) was added to each reaction and the reaction was performed at room temperature for 60 minutes. Fluorescence intensity was measured at an excitation of 485 nm and an emission of 528 nm using a Tecan Infinite M1000 microplate reader. Assays done by Millipore were conducted similarly with changes noted below:
Hedgehog signaling inhibition and PDE4 inhibition of various compounds disclosed herein was assayed as described herein above.

PDE4D3 = target: T1, PDE4D3 (Homo sapiens, UniProt Q08499); assay: In vitro PDE assay; assay type: biochemical
T1 construct: purchased BPS Biosciences (San Diego, Calif.); kinetic studies by Millipore (St. Louis, Mo.)
T1 sequence (Q08499 1-673 isoform Q08499-2): as above
Method: as §1, §2
After the enzymatic reaction, 100 μl of a binding solution (1:100 dilution of the binding agent, which contains the nano beads that recognize FAM-AMP, with the binding agent diluent) was added to each reaction and the reaction was performed at room temperature for 60 minutes. Fluorescence intensity was measured at an excitation of 485 nm and an emission of 528 nm using a Tecan Infinite M1000 microplate reader. Assays done by Millipore were conducted similarly with changes noted below: […]

Gli1 mRNA = assay: Hh % Inh.: SAG-induced Gli1 expression in C3H10T½ cells (qPCR); assay type: cell-based; conditions: Mus musculus, C3H 10T1/2, SAG-induced (100 nM), 24 hours; for inhibition at 1 µM: 1 pM [sic], read-out: C3H10T1/2 qPCR, Gh1 mRNA % Inh., 1 pM; for inhibition at 10 µM: 10 pM [sic], read-out: C3H10T1/2 qPCR, Gh1 mRNA % Inh., 10 pM
Method: Compounds are dosed from 10 mM DMSO stock solutions, and mRNA is isolated after 24 hours of compound treatment. mRNA is reverse transcribed to produce cDNA which is quantified by quantitative polymerase chain reaction (qPCR) in triplicate and levels are normalized to GAPDH levels. Data is presented as percent inhibition compared to positive control (SAG).

[2] = test system: Hedgehog signaling (TM3-Gli-Luc); assay: TM3-Gli-Luc luciferase reporter assay stimulated with 20 nM SAG; assay type: cell-based; conditions: Table 9A; read-out: TM3 G8 Luciferase EC 50
Method: TM3-Gli-Luc cells were maintained on sterile 0.1% gelatin (from porcine skin, Type A, prepared in MilliQ water, autoclaved, then sterile-filtered) in 1:1 Dulbecco's Modified Eagle Medium (DMEM)/F12 supplemented with 5% horse serum, 2.5% fetal bovine serum (FBS), and 15 mM HEPES, hereafter referred to as TM3 Culture Medium. For small molecule evaluation, TM3-Gli-Luc cells were assayed on 0.1% gelatin in DMEM/F12 supplemented with 2.5% FBS and 15 mM HEPES, hereafter referred to as TM3Luc Medium. Sufu^−/− cells were maintained in DMEM supplemented with 4.5 g/L D-glucose, L-glutamine, 25 mM HEPES, and 10% FBS, hereafter referred to as D10 FBS. For small molecule evaluation, Sufu^−/− cells were assayed in DMEM supplemented with 4.5 g/L D-glucose, L-glutamine, 25 mM HEPES, and 0.5% FBS, hereafter referred to as D0.5 FBS. All cells were cultured at 37° C. with a 5% CO2 atmosphere.
On the day of cell plating, 96-well plates were coated with 50 μL/well of sterile 0.1% gelatin for 5 minutes then aspirated and replaced with 50 μL/well of TM3 Culture Medium. TM3-Gli-Luc cells were seeded at a density of 5,000 cells/well in TM3 Culture Medium and incubated for 24 hours. A master mix of 20 nM SAG in TM3Luc Medium was prepared, and small molecule solutions were prepared by adding the desired amount of compound from 10 mM DMSO stock to TM3Luc Medium containing 20 nM SAG. Negative control was prepared by adding an equi-volume amount of DMSO as compared to small molecule treated conditions to TM3Luc Medium not containing SAG. Cell plating medium was aspirated and replaced with 100 μL/well of prepared small molecule-containing media, and plates were incubated for 48 hours before proceeding to luciferase activity and cell viability reading.
TM3Luc Medium from compound treated plates was aspirated and replaced with 82 μL/well of Glo Lysis Buffer (Promega, Madison, Wis., USA), and plates were shaken at 300 rpm and room temperature for 12 minutes. Lysate was split between two white 96-well plates, 45 μL/well and 25 μL/well for luciferase reading and cell viability respectively. For luciferase activity monitoring, 45 μL/well of Steady Glo (Promega, Madison, Wis., USA) was added to 45 μL/well of cell lysate, incubated at room temperature for 5 minutes, then luminescence was measured on a Turner Biosystems Modulus Microplate Reader (Sunnyvale, Calif., USA) with an integration time of 0.5 seconds. For cell viability measurement, 25 μL/well of Cell Titer Glo (Promega, Madison, Wis., USA) (prepared by 1:10 dilution with Glo Lysis Buffer) was added to 25 μL/well of cell lysate, incubated at room temperature for 5 minutes, then luminescence was measured as above.
Luciferase activity data (Steady Glo) was divided by corresponding cell viability data (Cell Titer Glo) to arrive at a live cell number-normalized luciferase activity reading. The average of negative control data (DMSO treated) was subtracted from all wells, and percent activity was calculated by dividing all wells by the positive control (SAG treated) average. […] At least two independent assays tested on separate days were averaged to provide EC50±standard error of the mean.

zebrafish embryos = assay: Zebrafish embryo phenotypic assay (ZF); assay type: in vivo; conditions: wild-type embryonic zebrafish, dosed 5 hpf
Method: All zebrafish experiments were approved by Vanderbilt University Institutional Animal Care and Use Committee. Wild-type zebrafish of AB strain were maintained using standard protocols. Chemical screen for small molecules was performed as previously described. Briefly, pairs of zebrafish were mated, and fertilized eggs were arrayed in 96-well microtiter plates (5 embryos/well) containing 250 μl E3 water. At ˜4-hpf, small molecule library from Vanderbilt High Throughput Screening Facility was added to each well to the final concentration of 5 μM. Embryos were incubated at 28.5° C. until 24 and 48-hpf, when they were examined for gross morphologic changes indicative of disruption in embryonic patterning. A total of ˜30,000 compounds were screened.
ZF refers to wild-type embryonic zebrafish phenotypic assay involving dosing n=˜10 embryos in E3 egg water with compound from either a stock of 1 mM or 10 mM in DMSO at 5 hours post-fertilization and observing at 24, 48, and 72 hours post-fertilization.

[3] = Table 8, read-out: Hh Inhibition Assay (EC50)
[4] = Table 9B, read-out: Shh Light2 Luc EC50

Row | SMILES | EC50 [1, 3] | IC50 (PDE4D) | further results
1 | C=C(C)Cn1c(SCC(=O)c2cccs2)nc2sc3c(c2c1=O)CCCC3 [Formula (1), 3-(2-methylallyl)-2-((2-oxo-2-(thiophen-2-yl)ethyl)thio)-5,6,7,8-tetrahydrobenzo[4,5]thieno[2,3-d]pyrimidine-4(3H)-one] | 1.5 µM | 0.893 µM | 
2 | C=CCn1c(SCC(=O)c2cccs2)nc2sc3c(c2c1=O)CCCC3 [Formula (2)] |  | > 100 µM | Hh Inhibition Assay (EC50, μM) ([1]; Table 8): Inactive
3 | C=C(C)Cn1c(SCC(=O)c2ccccc2)nc2sc3c(c2c1=O)CCCC3 [Formula (3)] | 3 µM | 1.27 µM | 
4 | C=C(C)Cn1c(SCC(=O)N2CCCC[C@H]2C)nc2sc3c(c2c1=O)CCCC3 [Formula (5)] | 2.5 µM | 1.2 µM | 
5 | C=CCn1c(SCC(=O)N2CCCC[C@H]2C)nc2sc3c(c2c1=O)CCCC3 [Formula (6)] | 5 µM | 7.6 µM | 
6 | C=C(C)Cn1c(SCC(=O)N2CCN(C)CC2)nc2sc3c(c2c1=O)CCCC3 [Formula (7)] | 20 µM | 8.5 µM | 
7 | C=CCn1c(SCC(=O)N2CCN(C)CC2)nc2sc3c(c2c1=O)CCCC3 [Formula (8)] | 10 µM | 2.08 µM | 
8 | C=C(C)Cn1c(SCC(=O)c2nccs2)nc2sc3c(c2c1=O)CCCC3 [Formula (9)] | 7.5 µM | 6.4 µM | 
9 | C=CCn1c(SCC(=O)c2nccs2)nc2sc3c(c2c1=O)CCCC3 [Formula (10)] |  | 27 µM | Hh Inhibition Assay (EC50, μM) ([1]; Table 8): Inactive
10 | C=C(C)Cn1c(SCC(=O)c2ccncc2)nc2sc3c(c2c1=O)CCCC3 [Formula (11)] | 10 µM | 16 µM | 
11 | C=CCn1c(SCC(=O)c2ccncc2)nc2sc3c(c2c1=O)CCCC3 [Formula (12)] | 15 µM | 8.2 µM | 
12 | C=C(C)Cn1c(SCC(=O)N2CCOCC2)nc2sc3c(c2c1=O)CCCC3 [Formula (13)] | 5 to 20 µM | 3.9 µM | 
13 | C=CCn1c(SCC(=O)N2CCOCC2)nc2sc3c(c2c1=O)CCCC3 [Formula (14)] |  | > 100 µM | Hh Inhibition Assay (EC50, μM) ([1]; Table 8): Inactive
14 | C=C(C)Cn1c(SCC(=O)c2ccccn2)nc2sc3c(c2c1=O)CCCC3 [Formula (15)] | 15 µM | 23 µM | 
15 | C=CCn1c(SCC(=O)c2ccccn2)nc2sc3c(c2c1=O)CCCC3 [Formula (16)] | 20 µM | 25 µM | 
16 | C=C(C)Cn1c(SCC(=O)N2Cc3ccccc3C2)nc2sc3c(c2c1=O)CCCC3 [Formula (17)] |  | 46 µM | Hh Inhibition Assay (EC50, μM) ([1]; Table 8): Inactive
17 | C=CCn1c(SCC(=O)N2Cc3ccccc3C2)nc2sc3c(c2c1=O)CCCC3 [Formula (18)] |  | > 100 µM | Hh Inhibition Assay (EC50, μM) ([1]; Table 8): Inactive
18 | CCn1c(SCC(=O)c2ccc(Cl)cc2)nc2sc3c(c2c1=O)CCC3 [HI113] |  |  | EC50 [1, 4]: > 20 µM; IC50 (PDE4D3; Table 9B): 4.1 µM
19 | C=CCn1c(SCC(=O)c2ccc(OC)cc2)nc2sc3c(c2c1=O)CCCC3 [HI798] |  |  | EC50 [1, 4]: > 10 µM; IC50 (PDE4D3; Table 9B): > 100 µM
20 | O=C(CSc1nc2sc3c(c2c(=O)n1CC1CC1)CCCC3)c1cccs1 [JEH-3-039-1] |  |  | IC50 (PDE4D3; Table 9A): 1 µM; inhibition at 1 µM (Gli1 mRNA): -3.3%; inhibition at 10 µM (Gli1 mRNA): 81.6%; EC50 [2]: 2.96 µM
21 | C=C(C)Cn1c(SCC(=O)c2cccs2)nc2sc3ccccc3c2c1=O [JEH-4-006] |  |  | IC50 (PDE4D3; Table 9A): > 100 µM; inhibition at 1 µM (Gli1 mRNA): 14.3%; inhibition at 10 µM (Gli1 mRNA): 79.3%; EC50 (Gli1 mRNA; read-out: C3H10T1/2 qPCR, Gh1 mRNA EC50): 4.3 µM; EC50 [2]: > 50 µM
22 | O=C(CSc1nc2sc3c(c2c(=O)n1C1CC1)CCN(C(=O)c1ccco1)C3)c1ccccc1 [KYK-1-75] |  |  | ZF Phenotype EC100 (zebrafish embryos): >50 µM; IC50 (PDE4D3; Table 9A): 6.4 µM; EC50 [2]: 3.59 µM
